Measured values: US12384800B2, “Antitumoral compounds” (priority 2017, dated 2025)

Tests used:
Assay in all cases: cells
[1] = test system: A549 cells (lung carcinoma, NSCLC); settings: A549, SRB; for GI50: 72 hours treatment; for TGI: total cell growth inhibition; for TGI / CC50: 72 hours; for CC50: read-out: LC50, 50% net cell killing
Description: (§1) The aim of this assay is to evaluate the in vitro cytostatic (ability to delay or arrest tumor cell growth) or cytotoxic (ability to kill tumor cells) activity of the samples being tested.
(§2) A colorimetric assay, using sulforhodamine B (SRB) reaction has been adapted to provide a quantitative measurement of cell growth and viability (following the technique described by Skehan et al. J. Natl. Cancer Inst. 1990, 82, 1107-1112). Another colorimetric assay based on 3-(4,5-Dimethylthiazol-2-yl)-2,5-diphenyltetrazolium bromide (MTT) reduction to a purple formazan has been also used to assess the antiproliferative activity (following the technique described by Mosmann et al. J. Immunol. Meth. 1983, 65, 55-63).
(§3) These forms of assays employ 96-well cell culture microplates following the standards of the American National Standards Institute and the Society for Laboratory Automation and Screening (ANSI SLAS 1-2004 (R2012) Oct. 12, 2011. All the cell lines used in this study were obtained from the American Type Culture Collection (ATCC) and derive from different types of human cancer.
(§4) A549, HT29, MDA-MB-231 and PSN1 cells were maintained in Dulbecco's Modified Eagle Medium (DMEM) while PC-3 and 22Rv1 cells were maintained in Roswell Park Memorial Institute Medium (RPMI). All cell lines were supplemented with 10% Fetal Bovine Serum (FBS), 2 mM L-glutamine, 100 U/mL penicillin, and 100 […] at 37° C., 5% CO2 and 98% humidity. For the experiments, cells were harvested from subconfluent cultures using trypsinization and resuspended in fresh medium before counting and plating.
(§5) A549, HT29, MDA-MB-231 and PSN1 cells were seeded in 96 well microtiter plates, at 5000 cells per well in aliquots of 150 μL, and allowed to attach to the plate surface for 18 hours (overnight) in drug free medium. After that, one control (untreated) plate of each cell line was fixed (as described below) and used for time zero reference value. Culture plates were then treated with test compounds (50 μL aliquots of 4× stock solutions in complete culture medium plus 4% DMSO) using ten ⅖ serial dilutions (concentrations ranging from 10 to 0.003 μg/mL) and triplicate cultures (1% final concentration in DMSO). After 72 hours treatment, the antitumor effect was measured by using the SRB methodology: Briefly, cells were washed twice with PBS, fixed for 15 min in 1% glutaraldehyde solution at room temperature, rinsed twice in PBS, and stained in 0.4% SRB solution for 30 min at room temperature. Cells were then rinsed several times with 1% acetic acid solution and air-dried at room temperature.
(§6) Effects on cell growth and survival were estimated by applying the NCI algorithm (Boyd M R and Paull K D. Drug Dev. Res. 1995, 34, 91-104). The values obtained in triplicate cultures were fitted by nonlinear regression to a four-parameters logistic curve by nonlinear regression analysis.

[2] = test system: HT29 cells (colorectal adenocarcinoma); settings: HT29, SRB; for GI50: 72 hours treatment; for TGI: total cell growth inhibition; for TGI / CC50: 72 hours; for CC50: read-out: LC50, 50% net cell killing
Description: as §1, §2, §3, §4, §5, §6

[3] = test system: MDA-MB-231 cells (breast adenocarcinoma); settings: for TGI: total cell growth inhibition; for TGI / CC50: 72 hours; for CC50: read-out: LC50, 50% net cell killing
Description: as §1, §2, §3, §4, §5, §6

[4] = test system: PSN1 cells (pancreas adenocarcinoma); settings: PSN1, SRB; for GI50: 72 hours treatment; for TGI: total cell growth inhibition; for TGI / CC50: 72 hours; for CC50: read-out: LC50, 50% net cell killing
Description: as §1, §2, §3, §4, §5, §6

[5] = MDA-MB-231, 72 hours treatment, SRB

COc1c(C)cc2c(c1O)[C@@H]1[C@@H]3[C@@H]4SC[C@]5(N[C@H](C(=O)O)Cc6c5[nH]c5ccccc65)C(=O)OC[C@@H](c5c6c(c(C)c(OC(C)=O)c54)OCO6)N3[C@@H](C#N)[C@H](C2)N1C [Compound 14-S, reference compound]
GI50 [1]: > 124 nM
TGI [1]: >1.24E−07 Molar
CC50 [1]: > 124 nM
GI50 [2]: 121 nM
TGI [2]: >1.24E−07 Molar
CC50 [2]: > 124 nM
GI50 [3, 5]: 54.5 nM
TGI ([3]; MDA-MB-231, SRB): 1.13E−07 Molar
CC50 ([3]; MDA-MB-231, SRB): > 124 nM
GI50 [4]: > 124 nM
TGI [4]: >1.24E−07 Molar
CC50 [4]: > 124 nM

C=CCOC(=O)NC[C@@H]1Cc2c([nH]c3ccc(OC)cc23)[C@@]2(CS[C@@H]3c4c(OC(C)=O)c(C)c5c(c4[C@H](COC2=O)N2[C@@H]3[C@H]3c4c(cc(C)c(OC)c4O)C[C@@H]([C@@H]2C#N)N3C)OCO5)N1 [Compound 25-S]
GI50 [1]: 7.17 nM
TGI [1]: 7.61E−09 Molar
CC50 [1]: > 110 nM
GI50 [2]: 7.17 nM
TGI [2]: 7.72E−09 Molar
CC50 [2]: > 110 nM
GI50 [3, 5]: 5.84 nM
TGI ([3]; MDA-MB-231, SRB): 9.04E−09 Molar
CC50 ([3]; MDA-MB-231, SRB): 15.4 nM
GI50 [4]: 6.84 nM
TGI [4]: 9.26E−09 Molar
CC50 [4]: 14.3 nM

COc1c(C)cc2c(c1O)[C@@H]1[C@@H]3[C@@H]4SC[C@]5(N[C@@H](C)Cc6c5[nH]c5ccccc65)C(=O)OC[C@@H](c5c6c(c(C)c(OC(C)=O)c54)OCO6)N3[C@@H](C#N)[C@H](C2)N1C [B, reference compound]
GI50 [1]: 20.6 nM
TGI [1]: 2.19E−08 Molar
CC50 [1]: > 129 nM
GI50 [2]: 8.48 nM
TGI [2]: 9.13E−09 Molar
CC50 [2]: > 129 nM
GI50 [3, 5]: 9 nM
TGI ([3]; MDA-MB-231, SRB): 1.67E−08 Molar
CC50 ([3]; MDA-MB-231, SRB): 34.7 nM
GI50 [4]: 19.3 nM
TGI [4]: 2.06E−08 Molar
CC50 [4]: 23.1 nM

COc1c(C)cc2c(c1O)[C@@H]1[C@@H]3[C@@H]4SC[C@]5(N[C@@H](CO)Cc6c5oc5ccccc65)C(=O)OC[C@@H](c5c6c(c(C)c(OC(C)=O)c54)OCO6)N3[C@@H](C#N)[C@H](C2)N1C [Compound 38-R]
GI50 [1]: 0.654 nM
TGI [1]: 1.04E−09 Molar
CC50 [1]: > 126 nM
GI50 [2]: 0.541 nM
TGI [2]: 5.91E−10 Molar
CC50 [2]: > 126 nM
GI50 [3, 5]: 0.453 nM
TGI ([3]; MDA-MB-231, SRB): 8.43E−10 Molar
CC50 ([3]; MDA-MB-231, SRB): 2.01 nM
GI50 [4]: 0.654 nM
TGI [4]: 9.94E−10 Molar
CC50 [4]: 1.76 nM

COc1c(C)cc2c(c1O)[C@@H]1[C@@H]3[C@@H]4SC[C@]5(N[C@H](C)Cc6c5[nH]c5ccccc65)C(=O)OC[C@@H](c5c6c(c(C)c(OC(C)=O)c54)OCO6)N3[C@@H](C#N)[C@H](C2)N1C [A, reference compound]
GI50 [1]: 8.36 nM
TGI [1]: 8.87E−09 Molar
CC50 [1]: > 129 nM
TGI [2]: 8.36E−09 Molar
CC50 [2]: > 129 nM
GI50 [3, 5]: 7.07 nM
TGI ([3]; MDA-MB-231, SRB): 9.38E−09 Molar
CC50 ([3]; MDA-MB-231, SRB): 14.1 nM
GI50 [4]: 12.9 nM
TGI [4]: 1.54E−08 Molar
CC50 [4]: 19.3 nM

COc1ccc2[nH]c3c(c2c1)C[C@H](CO)N[C@]31CS[C@@H]2c3c(OC(C)=O)c(C)c4c(c3[C@H](COC1=O)N1[C@@H]2[C@H]2c3c(cc(C)c(OC)c3O)C[C@@H]([C@@H]1C#N)N2C)OCO4 [Compound 18-R]
TGI [1]: 1.34E−09 Molar
TGI [2]: 1.34E−09 Molar
TGI ([3]; MDA-MB-231, SRB): 1.34E−09 Molar
CC50 ([3]; MDA-MB-231, SRB): 1.46 nM
GI50 [4]: 0.57 nM
TGI [4]: 1.06E−09 Molar

COc1ccc2[nH]c3c(c2c1)C[C@@H](CO)N[C@]31CS[C@@H]2c3c(OC(C)=O)c(C)c4c(c3[C@H](COC1=O)N1[C@@H]2[C@H]2c3c(cc(C)c(OC)c3O)C[C@@H]([C@@H]1C#N)N2C)OCO4 [Compound 18-S]
GI50 [1]: 1.7 nM
TGI [1]: 3.03E−09 Molar
TGI [2]: 1.34E−09 Molar
TGI ([3]; MDA-MB-231, SRB): 1.34E−09 Molar
CC50 ([3]; MDA-MB-231, SRB): 1.58 nM
GI50 [4]: 0.959 nM
TGI [4]: 1.34E−09 Molar

COc1ccc2[nH]c3c(c2c1)C[C@@H](CN)N[C@]31CS[C@@H]2c3c(OC(C)=O)c(C)c4c(c3[C@H](COC1=O)N1[C@@H]2[C@H]2c3c(cc(C)c(OC)c3O)C[C@@H]([C@@H]1C#N)N2C)OCO4 [Compound 26-S]
GI50 [1]: 11.2 nM
TGI [1]: 2.19E−08 Molar
CC50 [1]: > 122 nM
GI50 [2]: 2.79 nM
TGI [2]: 3.16E−09 Molar
CC50 [2]: > 122 nM
GI50 [3, 5]: 1.34 nM
TGI ([3]; MDA-MB-231, SRB): 1.94E−09 Molar
CC50 ([3]; MDA-MB-231, SRB): 3.89 nM
GI50 [4]: 3.04 nM
TGI [4]: 3.28E−09 Molar
CC50 [4]: 3.52 nM

C=CCOC(=O)NC[C@@H]1Cc2c(oc3ccccc23)[C@@]2(CS[C@@H]3c4c(OC(C)=O)c(C)c5c(c4[C@H](COC2=O)N2[C@@H]3[C@H]3c4c(cc(C)c(OC)c4O)C[C@@H]([C@@H]2C#N)N3C)OCO5)N1 [Compound 45-S]
GI50 ([3]; Homo sapiens, MDA-MB-231, 72 h): 11.7 nM

COc1ccc2oc3c(c2c1)CCN[C@]31CS[C@@H]2c3c(OC(C)=O)c(C)c4c(c3[C@H](COC1=O)N1[C@@H]2[C@H]2c3c(cc(C)c(OC)c3O)C[C@@H]([C@@H]1C#N)N2C)OCO4 [Compound 34]
GI50 [1]: 59.1 nM
TGI [1]: 8.05E−08 Molar
CC50 [1]: > 126 nM
GI50 [2]: 54.1 nM
TGI [2]: 8.55E−08 Molar
CC50 [2]: 125 nM
GI50 [3, 5]: 45.3 nM
TGI ([3]; MDA-MB-231, SRB): 7.67E−08 Molar
CC50 ([3]; MDA-MB-231, SRB): 112 nM
GI50 [4]: 54.1 nM
TGI [4]: 5.91E−08 Molar
CC50 [4]: > 126 nM

COc1c(C)cc2c(c1O)[C@@H]1[C@@H]3[C@@H]4SC[C@]5(N[C@H](COC(C)=O)Cc6c5[nH]c5ccccc65)C(=O)OC[C@@H](c5c6c(c(C)c(OC(C)=O)c54)OCO6)N3[C@@H](C#N)[C@H](C2)N1C [Compound 3a-S]
GI50 [1]: 3.11 nM
TGI [1]: 3.23E−09 Molar
CC50 [1]: > 120 nM
GI50 [2]: 2.99 nM
TGI [2]: 3.23E−09 Molar
CC50 [2]: > 120 nM
GI50 [3, 5]: 2.87 nM
TGI ([3]; MDA-MB-231, SRB): 3.59E−09 Molar
CC50 ([3]; MDA-MB-231, SRB): 4.9 nM
GI50 [4]: 2.15 nM
TGI [4]: 3.59E−09 Molar
CC50 [4]: 12 nM

COc1c(C)cc2c(c1O)[C@@H]1[C@@H]3[C@@H]4SC[C@]5(N[C@@H](CN)Cc6c5[nH]c5ccccc65)C(=O)OC[C@@H](c5c6c(c(C)c(OC(C)=O)c54)OCO6)N3[C@@H](C#N)[C@H](C2)N1C [Compound 11-R]
GI50 [1]: 1.77 nM
TGI [1]: 4.54E−09 Molar
CC50 [1]: > 126 nM
GI50 [2]: 1.39 nM
TGI [2]: >1.26E−07 Molar
CC50 [2]: > 126 nM
GI50 [4]: 1.39 nM
TGI [4]: 1.89E−09 Molar
CC50 [4]: > 126 nM

COc1c(C)cc2c(c1O)[C@@H]1[C@@H]3[C@@H]4SC[C@]5(N[C@H](CN)Cc6c5[nH]c5ccccc65)C(=O)OC[C@@H](c5c6c(c(C)c(OC(C)=O)c54)OCO6)N3[C@@H](C#N)[C@H](C2)N1C [Compound 11-S]
CC50 [1]: > 126 nM
TGI [2]: >1.26E−07 Molar
CC50 [2]: > 126 nM

C=CCOC(=O)NC[C@H]1Cc2c([nH]c3ccc(OC)cc23)[C@@]2(CS[C@@H]3c4c(OC(C)=O)c(C)c5c(c4[C@H](COC2=O)N2[C@@H]3[C@H]3c4c(cc(C)c(OC)c4O)C[C@@H]([C@@H]2C#N)N3C)OCO5)N1 [Compound 25-R]
GI50 [1]: 1.32 nM
TGI [1]: 2.43E−09 Molar
CC50 [1]: 9.92 nM
GI50 [2]: 1.54 nM
TGI [2]: 2.76E−09 Molar
CC50 [2]: > 110 nM
TGI ([3]; MDA-MB-231, SRB): 2.54E−09 Molar
CC50 ([3]; MDA-MB-231, SRB): 8.38 nM
TGI [4]: 2.32E−09 Molar
CC50 [4]: 6.73 nM

C=CCOC(=O)NC[C@H]1Cc2c([nH]c3ccccc23)[C@@]2(CS[C@@H]3c4c(OC(C)=O)c(C)c5c(c4[C@H](COC2=O)N2[C@@H]3[C@H]3c4c(cc(C)c(OC)c4O)C[C@@H]([C@@H]2C#N)N3C)OCO5)N1 [Compound 10-R]
TGI [2]: >1.14E−07 Molar
CC50 [2]: > 114 nM
